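96-well plates; 48 h exposure; 5 concentrations. Endpoints by linear interpolation between flanking doses. Not reached: highest tested concentration assigned. GI50: concentration for 50% inhibition of growth. The concentration for full growth arrest is given as TGI.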
How the values were obtained:
Assay in all cases: DTP human tumour cell line panel, 48 h
786-0 renal = test system: 786-0 renal
A498 renal = test system: A498 renal
A549 NSCLC = test system: A549 NSCLC
ACHN renal = test system: ACHN renal
BT-549 breast = test system: BT-549 breast
CAKI-1 renal = test system: CAKI-1 renal
CCRF-CEM leukemia = test system: CCRF-CEM leukemia
COLO 205 colon = test system: COLO 205 colon
DU-145 prostate = test system: DU-145 prostate
EKVX NSCLC = test system: EKVX NSCLC
HCC-2998 colon = test system: HCC-2998 colon
HCT-116 colon = test system: HCT-116 colon
HCT-15 colon = test system: HCT-15 colon
HL-60(TB) leukemia = test system: HL-60(TB) leukemia
HOP-62 NSCLC = test system: HOP-62 NSCLC
HOP-92 NSCLC = test system: HOP-92 NSCLC
HS 578T breast = test system: HS 578T breast
HT29 colon = test system: HT29 colon
IGROV1 ovarian = test system: IGROV1 ovarian
K-562 leukemia = test system: K-562 leukemia
KM12 colon = test system: KM12 colon
LOX IMVI melanoma = test system: LOX IMVI melanoma
M14 melanoma = test system: M14 melanoma
MALME-3M melanoma = test system: MALME-3M melanoma
MCF7 breast = test system: MCF7 breast
MDA-MB-231 breast = test system: MDA-MB-231 breast
MDA-MB-435 = test system: MDA-MB-435
MOLT-4 leukemia = test system: MOLT-4 leukemia
NCI-H226 lung = test system: NCI-H226 lung
NCI-H23 lung = test system: NCI-H23 lung
NCI-H460 lung = test system: NCI-H460 lung
NCI-H522 lung = test system: NCI-H522 lung
NCI/ADR-RES ovarian = test system: NCI/ADR-RES ovarian
OVCAR-3 ovarian = test system: OVCAR-3 ovarian
OVCAR-4 ovarian = test system: OVCAR-4 ovarian
OVCAR-5 ovarian = test system: OVCAR-5 ovarian
OVCAR-8 ovarian = test system: OVCAR-8 ovarian
PC-3 prostate = test system: PC-3 prostate
RPMI-8226 leukemia = test system: RPMI-8226 leukemia
RXF 393 renal = test system: RXF 393 renal
SF-268 CNS = test system: SF-268 CNS
SF-295 CNS = test system: SF-295 CNS
SF-539 CNS = test system: SF-539 CNS
SK-MEL-2 melanoma = test system: SK-MEL-2 melanoma
SK-MEL-28 melanoma = test system: SK-MEL-28 melanoma
SK-MEL-5 melanoma = test system: SK-MEL-5 melanoma
SK-OV-3 ovarian = test system: SK-OV-3 ovarian
SN12C renal = test system: SN12C renal
SNB-19 CNS = test system: SNB-19 CNS
SNB-75 CNS = test system: SNB-75 CNS
SR leukemia = test system: SR leukemia
SW-620 colon = test system: SW-620 colon
T-47D breast = test system: T-47D breast
TK-10 renal = test system: TK-10 renal
U251 CNS = test system: U251 CNS
UACC-257 melanoma = test system: UACC-257 melanoma
UACC-62 melanoma = test system: UACC-62 melanoma
UO-31 renal = test system: UO-31 renal

COc1ccccc1/C=C/C(=O)/C=C/c1ccccc1OC
GI50 (786-0 renal): 1.85 µM | TGI (786-0 renal): 3.59 µM | GI50 (A498 renal): 1.54 µM | TGI (A498 renal): 3.06 µM | GI50 (A549 NSCLC): 2.35 µM | TGI (A549 NSCLC): 7 µM | GI50 (ACHN renal): 1.91 µM | TGI (ACHN renal): 3.49 µM | GI50 (BT-549 breast): 1.6 µM | TGI (BT-549 breast): 3.19 µM | GI50 (CAKI-1 renal): 3.16 µM | TGI (CAKI-1 renal): 7.94 µM | GI50 (CCRF-CEM leukemia): 2.04 µM | TGI (CCRF-CEM leukemia): 9.19 µM | GI50 (COLO 205 colon): 1.94 µM | TGI (COLO 205 colon): 3.5 µM | GI50 (DU-145 prostate): 1.96 µM | TGI (DU-145 prostate): 4.15 µM | GI50 (EKVX NSCLC): 2.42 µM | TGI (EKVX NSCLC): 6.22 µM | GI50 (HCC-2998 colon): 1.92 µM | TGI (HCC-2998 colon): 3.37 µM | GI50 (HCT-116 colon): 1.27 µM | TGI (HCT-116 colon): 2.62 µM | GI50 (HCT-15 colon): 2.27 µM | TGI (HCT-15 colon): 10.5 µM | GI50 (HL-60(TB) leukemia): 2.69 µM | TGI (HL-60(TB) leukemia): 8.45 µM | GI50 (HOP-62 NSCLC): 3 µM | TGI (HOP-62 NSCLC): 6.92 µM | GI50 (HOP-92 NSCLC): 2.1 µM | TGI (HOP-92 NSCLC): 5.04 µM | GI50 (HS 578T breast): 3.4 µM | TGI (HS 578T breast): 39.2 µM | GI50 (HT29 colon): 2.24 µM | TGI (HT29 colon): 5.04 µM | GI50 (IGROV1 ovarian): 1.6 µM | TGI (IGROV1 ovarian): 3.2 µM | GI50 (K-562 leukemia): 2.83 µM | TGI (K-562 leukemia): 12.4 µM | GI50 (KM12 colon): 1.57 µM | TGI (KM12 colon): 3.39 µM | GI50 (LOX IMVI melanoma): 1.53 µM | TGI (LOX IMVI melanoma): 3.01 µM | GI50 (M14 melanoma): 1.65 µM | TGI (M14 melanoma): 3.68 µM | GI50 (MALME-3M melanoma): 2.11 µM | TGI (MALME-3M melanoma): 4.35 µM | GI50 (MCF7 breast): 0.37 µM | TGI (MCF7 breast): 3.81 µM | GI50 (MDA-MB-231 breast): 2.97 µM | TGI (MDA-MB-231 breast): 8.75 µM | GI50 (MDA-MB-435): 2.04 µM | TGI (MDA-MB-435): 5.61 µM | GI50 (MOLT-4 leukemia): 2.4 µM | TGI (MOLT-4 leukemia): 9.06 µM | GI50 (NCI-H226 lung): 1.71 µM | TGI (NCI-H226 lung): 3.18 µM | GI50 (NCI-H23 lung): 1.75 µM | TGI (NCI-H23 lung): 3.92 µM | GI50 (NCI-H460 lung): 2.16 µM | TGI (NCI-H460 lung): 5.64 µM | GI50 (NCI-H522 lung): 1.67 µM | TGI (NCI-H522 lung): 3.26 µM | GI50 (NCI/ADR-RES ovarian): 2.53 µM | TGI (NCI/ADR-RES ovarian): 8.98 µM | GI50 (OVCAR-3 ovarian): 1.68 µM | TGI (OVCAR-3 ovarian): 3.68 µM | GI50 (OVCAR-4 ovarian): 1.51 µM | TGI (OVCAR-4 ovarian): 16.6 µM | GI50 (OVCAR-5 ovarian): 3.16 µM | TGI (OVCAR-5 ovarian): 6.47 µM | GI50 (OVCAR-8 ovarian): 2.58 µM | TGI (OVCAR-8 ovarian): 8.88 µM | GI50 (PC-3 prostate): 2.26 µM | TGI (PC-3 prostate): 7.03 µM | GI50 (RPMI-8226 leukemia): 2.25 µM | TGI (RPMI-8226 leukemia): 8.43 µM | GI50 (RXF 393 renal): 1.6 µM | TGI (RXF 393 renal): 3.06 µM | GI50 (SF-268 CNS): 1.92 µM | TGI (SF-268 CNS): 4.57 µM | GI50 (SF-295 CNS): 3.74 µM | TGI (SF-295 CNS): 10.5 µM | GI50 (SF-539 CNS): 2.82 µM | TGI (SF-539 CNS): 6.33 µM | GI50 (SK-MEL-2 melanoma): 2.29 µM | TGI (SK-MEL-2 melanoma): 4.95 µM | GI50 (SK-MEL-28 melanoma): 1.67 µM | TGI (SK-MEL-28 melanoma): 3.18 µM | GI50 (SK-MEL-5 melanoma): 1.5 µM | TGI (SK-MEL-5 melanoma): 2.87 µM | GI50 (SK-OV-3 ovarian): 2.94 µM | TGI (SK-OV-3 ovarian): 8.66 µM | GI50 (SN12C renal): 2.06 µM | TGI (SN12C renal): 5.21 µM | GI50 (SNB-19 CNS): 1.84 µM | TGI (SNB-19 CNS): 4.1 µM | GI50 (SNB-75 CNS): 2.23 µM | TGI (SNB-75 CNS): 11.6 µM | GI50 (SR leukemia): 1.18 µM | TGI (SR leukemia): 8.22 µM | GI50 (SW-620 colon): 1.51 µM | TGI (SW-620 colon): 3.37 µM | GI50 (T-47D breast): 1.47 µM | TGI (T-47D breast): 8.4 µM | GI50 (TK-10 renal): 3.52 µM | TGI (TK-10 renal): 8.83 µM | GI50 (U251 CNS): 1.55 µM | TGI (U251 CNS): 3.24 µM | GI50 (UACC-257 melanoma): 1.69 µM | TGI (UACC-257 melanoma): 3.72 µM | GI50 (UACC-62 melanoma): 1.65 µM | TGI (UACC-62 melanoma): 3.41 µM | GI50 (UO-31 renal): 1.83 µM | TGI (UO-31 renal): 3.33 µM
